Patent US4400387A, “Indolizine derivatives and uses in therapeutics” (S. A. Labaz-Sanofi N.V., priority 1979, dated 1983)
Blank lines part the entries; values can stand above or below the compound they belong to.

Columns and labels:
[1] = molecular target: T1, adenosine deaminase in ascites cells (Krebs II) (Mus musculus, UniProt P03958); assay: Inhibition of adenosine deamination in intact ascites cells (14C adenosine); type: cell-based; conditions: 14C adenosine 5.10^-5 M, read-out: concentration at which deamination of adenosine by ascites cells was 50% inhibited (converted)
T1 construct: tested in intact cells by incubating ascites cells (Krebs II); endogenous in cells; host or cells: Krebs II ascites cells
T1 sequence (P03958 1-352): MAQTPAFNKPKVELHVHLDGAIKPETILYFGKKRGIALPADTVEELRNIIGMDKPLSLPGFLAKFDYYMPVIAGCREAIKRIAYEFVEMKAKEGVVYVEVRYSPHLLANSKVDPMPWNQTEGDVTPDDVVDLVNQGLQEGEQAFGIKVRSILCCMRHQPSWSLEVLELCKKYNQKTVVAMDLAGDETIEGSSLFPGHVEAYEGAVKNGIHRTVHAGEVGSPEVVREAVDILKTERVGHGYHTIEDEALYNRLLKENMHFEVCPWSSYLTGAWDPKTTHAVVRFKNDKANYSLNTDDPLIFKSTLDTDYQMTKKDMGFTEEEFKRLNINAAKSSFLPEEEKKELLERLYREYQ
Protocol: The inhibition of the action of adenosine deaminase by these two above-cited compounds has also been tested in intact cells by incubating ascites cells (Krebs II) in the presence of ^14 C adenosine at a concentration of 5.10^-5 M and by measuring the formation of inosine and hypoxanthine ^14 C. The deamination of adenosine due to the ascites cells was 50% inhibited in the presence of 2.10^-6 M of 1-bromo-2-phenyl-3-(3-bromo-4-hydroxy-benzoyl)-indolizine and of 10^-6 M of 1-bromo-2-(4-fluoro-phenyl)-3-(3-bromo-4-hydroxy-benzoyl)-indolizine.

[2] = molecular target: T2, adenosine deaminase obtained from calf intestine (Bos taurus, UniProt P56658); assay: Inhibition of the action of adenosine deaminase in vitro (decrease in absorbance at 265 nm); type: biochemical; conditions: pH 7.4, 30° C.
T2 construct: purchased
T2 sequence (P56658 1-363): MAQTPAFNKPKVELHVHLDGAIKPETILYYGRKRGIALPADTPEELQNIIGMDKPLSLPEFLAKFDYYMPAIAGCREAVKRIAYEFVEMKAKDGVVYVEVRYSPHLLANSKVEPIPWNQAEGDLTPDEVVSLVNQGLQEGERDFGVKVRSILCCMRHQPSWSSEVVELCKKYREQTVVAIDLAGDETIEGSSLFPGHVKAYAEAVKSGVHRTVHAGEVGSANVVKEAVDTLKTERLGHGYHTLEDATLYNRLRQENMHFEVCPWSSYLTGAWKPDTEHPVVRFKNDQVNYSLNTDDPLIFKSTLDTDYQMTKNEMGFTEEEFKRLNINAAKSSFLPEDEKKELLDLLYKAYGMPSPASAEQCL
Protocol: This test was performed with adenosine deaminase obtained from calf intestine.
(§1) The experimental procedure described hereunder was used:
In the absorption cell the following solutions were introduced:
2.7 ml of a 0.1 molar phosphate buffer solution (pH=7.4)
0.3 ml of a 10^-4 or 5.10^-4 molar solution of adenosine in the phosphate buffer solution (final concentration in adenosine: 10^-5 or 5.10^-5 mol) 0.01 ml of a 3.10^-3 molar ethanolic solution of the compound to be studied (about 10 milliunits)
The contents of the absorption cell were allowed to incubate for 2 minutes and then the enzymatic reaction was started by adding 0.03 ml of a commercial adenosine deaminase solution having a known concentration in enzyme. The reaction was performed at 30° C. and followed by spectrophotometric recording of the decrease in absorbance at 265 nm due to the transformation of adenosine into inosine by means of adenosine deaminase. This enzymatic reaction can be represented by the following equation: [formula]
The same measurements were performed with a control solution containing all the ingredients referred to above except the compound being studied. Curves were then plotted representing the decrease in absorbance in comparison with time obtained on the one hand with the solution containing the inhibitor and on the other with the control solution.
The slope of both curves was measured and expressed in the number of mols of inosine formed in one minute. After that, the percent of inhibition of the activity of adenosine deaminase provoked by a compound of the invention was calculated.

[3] = molecular target: T2, adenosine deaminase obtained from calf intestine; assay: as above; type: biochemical; conditions: compound at a concentration of 10^-6 M
[4] = Acute toxicity tests in mice; type: in vivo; conditions: 20 mg/kg by intravenous route
Protocol: Acute toxicity tests were performed in mice with compounds of the invention.

[5] = Uricosuric action in humans after a single oral dose; type: in vivo; conditions: single oral dose 300 mg
Protocol: The uricosuric action was determined in humans after a single dose of 300 mg of 2-ethyl-3-(3,5-dibromo-4-hydroxy-benzoyl)-indolizine by oral route.

[6] = molecular target: T3, xanthine oxidase found in milk (Bos taurus, UniProt P80457); assay: Inhibition of the action of xanthine oxidase in vitro (U.V. spectrophotometry, formation of uric acid from hypoxanthine); type: biochemical; conditions: compound at 10^-5 M; hypoxanthine substrate, pH 7.4, 37° C.
T3 construct: purchased
T3 sequence (P80457 whole entry): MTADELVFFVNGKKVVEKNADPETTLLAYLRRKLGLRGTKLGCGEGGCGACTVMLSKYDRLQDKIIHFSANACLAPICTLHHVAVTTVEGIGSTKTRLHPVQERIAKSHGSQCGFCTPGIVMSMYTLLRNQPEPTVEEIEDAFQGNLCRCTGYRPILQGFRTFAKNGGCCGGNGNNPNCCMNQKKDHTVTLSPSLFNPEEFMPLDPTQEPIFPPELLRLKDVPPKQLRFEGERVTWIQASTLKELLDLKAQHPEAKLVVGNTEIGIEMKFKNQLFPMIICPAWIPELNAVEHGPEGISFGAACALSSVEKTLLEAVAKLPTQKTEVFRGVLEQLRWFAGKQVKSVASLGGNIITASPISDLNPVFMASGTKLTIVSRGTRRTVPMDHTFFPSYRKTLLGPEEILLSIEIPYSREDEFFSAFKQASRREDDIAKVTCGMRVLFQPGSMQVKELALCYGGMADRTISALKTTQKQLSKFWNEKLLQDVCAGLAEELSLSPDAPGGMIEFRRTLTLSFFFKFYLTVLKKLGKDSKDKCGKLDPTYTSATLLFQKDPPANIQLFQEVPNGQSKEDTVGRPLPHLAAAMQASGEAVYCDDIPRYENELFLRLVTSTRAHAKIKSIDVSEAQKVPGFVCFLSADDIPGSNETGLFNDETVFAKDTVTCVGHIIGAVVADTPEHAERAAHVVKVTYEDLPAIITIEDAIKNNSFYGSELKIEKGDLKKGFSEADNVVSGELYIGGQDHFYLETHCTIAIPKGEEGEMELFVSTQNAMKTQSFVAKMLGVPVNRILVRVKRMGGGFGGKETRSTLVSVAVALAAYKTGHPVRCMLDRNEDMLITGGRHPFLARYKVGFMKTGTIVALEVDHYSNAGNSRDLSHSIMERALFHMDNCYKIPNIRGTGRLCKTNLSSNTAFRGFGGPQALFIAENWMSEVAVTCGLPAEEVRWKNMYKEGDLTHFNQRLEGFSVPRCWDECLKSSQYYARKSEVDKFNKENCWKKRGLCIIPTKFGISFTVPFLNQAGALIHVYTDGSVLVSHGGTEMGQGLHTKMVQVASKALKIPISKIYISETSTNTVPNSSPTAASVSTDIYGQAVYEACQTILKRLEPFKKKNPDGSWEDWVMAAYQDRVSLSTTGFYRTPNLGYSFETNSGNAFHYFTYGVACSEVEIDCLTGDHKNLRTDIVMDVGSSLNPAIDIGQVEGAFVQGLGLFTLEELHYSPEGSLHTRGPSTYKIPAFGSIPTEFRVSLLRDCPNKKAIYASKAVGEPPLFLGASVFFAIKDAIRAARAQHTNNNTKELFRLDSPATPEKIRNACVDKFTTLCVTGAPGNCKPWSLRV
Protocol: This trial was performed with xanthine oxidase found in milk. The activity of the enzymatic preparation was measured by following the formation of uric acid starting from hypoxanthine in the presence of oxygen and of a phosphate buffer solution.
as §1
In the absorption cell, the following solutions were introduced:
1.5 ml of a 0.1 molar phosphate buffer solution (pH=7.4) saturated with oxygen.
0.3 ml of a 1 m molar solution of ethylene diamine tetraacetate.
0.01 ml of a commercial xanthine oxidase solution having a known concentration in enzyme.
0.01 ml of a 3.10^-3 molar ethanolic solution of the compound to be tested.
The contents of the absorption cell were allowed to incubate for 2 minutes and then the enzymatic reaction was started by adding 0.3 ml of a 10^-3 molar solution of hypoxanthine to the absorption cell. The reaction was followed by spectrophotometric recording of the oxidation rate of hypoxanthine at 293 nm and at 37° C. The optical density was automatically registered. The same measurements were performed with a control solution containing all the ingredients referred to above except the compound being tested.
In this way, a curve representing the variation in optical density in comparison with time was obtained with the solution containing the inhibitor on the one hand and devoid of inhibitor on the other. The slope of both curves was measured and expressed in the number of mols of uric acid formed in one minute. Thus, it was possible to compare the values obtained and calculate, in percent, the inhibition of the activity of xanthine oxidase provoked by a compound of the invention.

[7] = molecular target: T3, xanthine oxidase found in milk; assay: as above; type: biochemical; conditions: compound at a concentration of 10^-6 M
HSV-1 (KOS) = assay: Herpetic skin lesions and mortality of nu/nu mice inoculated with HSV-1 (KOS), topical Ara-A and/or compound; type: in vivo; conditions: topical 1% in dimethylsulfoxide, 4 times daily days 0-4
Protocol: This test was carried out in order to determine the effects of adenine arabinoside (Ara-A) and compounds of the invention on the incidence of herpetic skin lesions and mortality of nu/nu mice inoculated with HSV-1 (KOS). Athymic nude (nu/nu) mice, 20 to 25 days old, were inoculated intracutaneously with HSV-1 (KOS) at about 10^4.5 PFU (plaque-forming units) per mouse. Ara-A and/or a compound of the invention were applied topically at 1% in dimethylsulfoxide, 4 times daily on days 0, 1, 2, 3 and 4. The number of mice with epidermal lesion (necrosis of at least 5 to 10 mm long) per total number of mice alive was registered.

SMILES: O=C(c1ccc(O)c(Br)c1)c1c(-c2ccc(F)cc2)c(Br)c2ccccn12 [4-Fluoro-phenyl Br Br H, 1-Bromo-2-(4-fluoro-phenyl)-3-(3-bromo-4-hydroxy-benzoyl)-indolizine]
IC50 [1]: 1000 nM
Inhibition of the action of adenosine deaminase in vitro (in %) At 5.10^-5 M adenosine [2]: 94%
Inhibition of the action of adenosine deaminase in vitro (in %) At 10^-5 M adenosine [2]: 100%
inhibition at 1 µM [3]: 86%
deaths after 14 days [4]: on death was registered

SMILES: CCc1cc2ccccn2c1C(=O)c1cc(Br)c(O)c(Br)c1 [Ethyl H Br Br, 2-Ethyl-3-(3,5-dibromo-4-hydroxy-benzoyl)-indolizine]
Tmax ([5]; human, plasma, read-out: time of highest plasmatic level): 5 h
mean increase of urinary excretion of uric acid in 24 hours ([5]; 24 hours): 22%
lowering of uricemia ([5]; by the 5th hour): 9%
increase of urinary excretion of uric acid ([5]; period between 12th and 24th hour): 40%
inhibition at 10 µM [6]: 98%

SMILES: CCc1cc2ccccn2c1C(=O)c1ccc(O)c(OC)c1 [Ethyl H H OCH3, 2-Ethyl-2-(3-methoxy-4-hydroxy-benzoyl)-indolizine]
inhibition at 10 µM [6]: 57%

SMILES: Cc1c(Br)c2ccccn2c1C(=O)c1cc(Cl)c(O)c(Cl)c1 [Methyl Br Cl Cl, 1-Bromo-2-methyl-3-(3,5-dichloro-4-hydroxy-benzoyl)-indolizine]
inhibition at 10 µM [6]: 46%

SMILES: Cc1c(Br)c2ccccn2c1C(=O)c1ccc(O)c(Cl)c1 [Methyl Br Cl H, 1-Bromo-2-methyl-3-(3-chloro-4-hydroxy-benzoyl)-indolizine]
inhibition at 10 µM [6]: 44%

SMILES: Cc1cc2ccccn2c1C(=O)c1cc(Cl)c(O)c(Cl)c1 [Methyl H Cl Cl, 2-Methyl-3-(3,5-dichloro-4-hydroxy-benzoyl)-indolizine]
inhibition at 10 µM [6]: 84%

SMILES: Cc1cc2ccccn2c1C(=O)c1ccc(O)c(Br)c1 [Methyl H H Br, 2-Methyl-3-(3-bromo-4-hydroxy-benzoyl)-indolizine]
inhibition at 10 µM [6]: 74%

SMILES: O=C(c1cc(Br)c(O)c(Br)c1)c1c(-c2ccccc2)c(Br)c2ccccn12 [Phenyl Br Br Br, 1-Bromo-2-phenyl-3-(3,5-dibromo-4-hydroxy-benzoyl)-indolizine]
Inhibition of the action of adenosine deaminase in vitro (in %) At 5.10^-5 M adenosine [2]: 22%
Inhibition of the action of adenosine deaminase in vitro (in %) At 10^-5 M adenosine [2]: 53%
inhibition at 10 µM [6]: 48%

SMILES: O=C(c1ccc(O)c(Br)c1)c1c(-c2ccccc2)c(Br)c2ccccn12 [Phenyl Br Br H, 1-Bromo-2-phenyl-3-(3-bromo-4-hydroxy-benzoyl)-indolizine]
effect on the antiviral (anti-herpetic) activity of adenine arabinoside (Ara-A) (HSV-1 (KOS)): potentiates the antiviral activity of adenine arabinoside
IC50 [1]: 2000 nM
Inhibition of the action of adenosine deaminase in vitro (in %) At 5.10^-5 M adenosine [2]: 88%
Inhibition of the action of adenosine deaminase in vitro (in %) At 10^-5 M adenosine [2]: 100%
inhibition at 1 µM [3]: 80%
deaths after 14 days [4]: on death was registered

SMILES: CCCc1c(Br)c2ccccn2c1C(=O)c1ccc(O)c(Br)c1 [n-Propyl Br Br H, 1-Bromo-2-n-propyl-3-(3-bromo-4-hydroxy-benzoyl)-indolizine]
inhibition at 10 µM [6]: 97%

SMILES: CCCc1c(Br)c2ccccn2c1C(=O)c1ccc(O)c(Cl)c1 [n-Propyl Br H Cl, 1-Bromo-2-n-propyl-3-(3-chloro-4-hydroxy-benzoyl)-indolizine]
inhibition at 10 µM [6]: 84%

Second part, the compound after the results:

inhibition at 1 µM [7]: 84%
inhibition at 10 µM [6]: 99%
SMILES: CC(C)c1cc2ccccn2c1C(=O)c1cc(Br)c(O)c(Br)c1 [Isopropyl H Br Br, 2-Isopropyl-3-(3,5-dibromo-4-hydroxy-benzoyl)-indolizine]

Inhibition of the action of adenosine deaminase in vitro (in %) At 5.10^-5 M adenosine [2]: 76%
inhibition at 10 µM [6]: 96%
SMILES: CC(C)c1cc2ccccn2c1C(=O)c1cc(Cl)c(O)c(Cl)c1 [Isopropyl H Cl Cl, 2-Isopropyl-3-(3,5-dichloro-4-hydroxy-benzoyl)-indolizine]

inhibition at 10 µM [6]: 94%
SMILES: CC(C)c1cc2ccccn2c1C(=O)c1ccc(O)c(Br)c1 [Isopropyl H H Br, 2-Isopropyl-3-(3-bromo-4-hydroxy-benzoyl)-indolizine]

inhibition at 10 µM [6]: 88%
SMILES: CC(C)c1cc2ccccn2c1C(=O)c1ccc(O)c(Cl)c1 [Isopropyl H H Cl, 2-Isopropyl-3-(3-chloro-4-hydroxy-benzoyl)-indolizine]

inhibition at 10 µM [6]: 91%
SMILES: Cc1cc2ccccn2c1C(=O)c1cc(Br)c(O)c(Br)c1 [Methyl H Br Br, 2-Methyl-3-(3,5-dibromo-4-hydroxybenzoyl)-indolizine]

inhibition at 10 µM [6]: 95%
SMILES: CCCc1c(Br)c2ccccn2c1C(=O)c1cc(Br)c(O)c(Br)c1 [n-Propyl Br Br Br, 1-Bromo-2-n-propyl-3-(3,5-dibromo-4-hydroxy-benzoyl)-indolizine]
